Reference: ChEMBL document CHEMBL5303304, “EUbOPEN Chemogenomics Library - IncuCyte” (2023)
Values joined by “and” are separate entries in the source; they are usually repeats but may differ in a detail not shown here. Equal entries are not always repeated.

Legend:
Format in all cases: toxicity, cell-based
HEK-293T = assay: Incucyte cell viability with HEK293T; details: human, 10 µM, compound concentration 10 uM
Fibroblast = assay: Incucyte cell viability with human fibroblast; details: 10 µM, compound concentration 10 uM
U2OS = assay: Incucyte cell viability with U2OS; details: human, 10 µM, compound concentration 10 uM
Also: unitless GR value; below 1 slowed growth and below 0 cell loss.

Row | SMILES | Growth Rate (HEK-293T; 6 h, replicate number 1) | Growth Rate (HEK-293T; 6 h, replicate number 2) | Growth Rate (HEK-293T; 12 h, replicate number 2) | Growth Rate (HEK-293T; 18 h, replicate number 1) | Growth Rate (HEK-293T; 18 h, replicate number 2) | Growth Rate (HEK-293T; 24 h, replicate number 2) | Growth Rate (Fibroblast; 0 h, replicate number 2) | Growth Rate (Fibroblast; 6 h, replicate number 1) | Growth Rate (Fibroblast; 12 h, replicate number 1) | Growth Rate (Fibroblast; 12 h, replicate number 2) | Growth Rate (Fibroblast; 18 h, replicate number 1) | Growth Rate (Fibroblast; 18 h, replicate number 2) | Growth Rate (Fibroblast; 24 h, replicate number 1) | Growth Rate (Fibroblast; 24 h, replicate number 2) | Growth Rate (U2OS; 6 h, replicate number 2) | Growth Rate (U2OS; 12 h, replicate number 1) | Growth Rate (U2OS; 24 h, replicate number 1) | Growth Rate (HEK-293T; 0 h, replicate number 1) | Growth Rate (HEK-293T; 0 h, replicate number 2) | Growth Rate (U2OS; 6 h, replicate number 1) | other results
1 | Cc1nccn1-c1ccc(Sc2cccc(C3(C(N)=O)CCOCC3)c2)cc1 | 0.3 | -0.79 | -0.38 | 0.41 | -0.09 | 0.1 | 0.46 | 0.34 | 0.28 | 0.59 | 0.33 | 0.72 | 0.45 | 0.71 | 0.9 | 0.88 | 0.88 | – | – | – | Growth Rate (HEK-293T; 12 h, replicate number 1): 0.47; Growth Rate (HEK-293T; 24 h, replicate number 1): 0.4; Growth Rate (Fibroblast; 6 h, replicate number 2): -0.58; Growth Rate (U2OS; 12 h, replicate number 2): 0.71; Growth Rate (U2OS; 18 h, replicate number 2): 0.78; Growth Rate (U2OS; 24 h, replicate number 2): 0.81
2 | CN[C@@H](C)C/C=C/c1cncc(OC(C)C)c1 [ISPRONICLINE] | 0.31 | – | – | 0.32 | – | 0.96 | -0.46 | – | -0.29 | 0.98 | 0.22 | 0.72 | 0.97 | 0.87 | – | 0.82 | 0.83 | 0.9 | 0.86 | 0.65 | Growth Rate (HEK-293T; 12 h, replicate number 1): 0.02; Growth Rate (HEK-293T; 24 h, replicate number 1): 0.28; Growth Rate (Fibroblast; 0 h, replicate number 1): -0.27; Growth Rate (Fibroblast; 6 h, replicate number 2): 0.53; Growth Rate (U2OS; 0 h, replicate number 1): -0.66; Growth Rate (U2OS; 0 h, replicate number 2): 0.2; Growth Rate (U2OS; 18 h, replicate number 1): 0.83
3 | O=C1COc2cc(C(=O)N(Cc3ccc(C(=O)Nc4ccncn4)cc3)C3CC3)ccc2N1 | 0.38 | 0.01 | 0.42 | 0.75 | 0.66 | 0.72 | – | 0.36 | 0.28 | 0.88 | 0.54 | 0.79 | 0.74 | 0.98 | 0.77 | 0.37 | 0.73 | – | -0.63 | 0.39 | Growth Rate (HEK-293T; 12 h, replicate number 1): 0.74; Growth Rate (HEK-293T; 24 h, replicate number 1): 0.95; Growth Rate (Fibroblast; 6 h, replicate number 2): 0.55; Growth Rate (U2OS; 0 h, replicate number 1): -0.53; Growth Rate (U2OS; 0 h, replicate number 2): 0.72; Growth Rate (U2OS; 12 h, replicate number 2): 0.8; Growth Rate (U2OS; 18 h, replicate number 1): 0.61; Growth Rate (U2OS; 18 h, replicate number 2): 0.77; Growth Rate (U2OS; 24 h, replicate number 2): 0.87
4 | C[C@@H]1CC[C@@]2(OC1)O[C@H]1[C@@H](O)[C@H]3[C@@H]4CC[C@H]5C[C@@H](O[C@@H]6O[C@H](CO)[C@H](O[C@@H]7O[C@H](CO)C(O)[C@H](O[C@@H]8OC[C@@H](O)[C@H](O)[C@H]8O)[C@H]7O[C@@H]7O[C@H](CO)[C@H](O)[C@H](O[C@@H]8O[C@H](CO)[C@@H](O)[C@H](O)[C@H]8O)[C@H]7O)[C@H](O)[C@H]6O)[C@H](O)C[C@]5(C)[C@H]4CC[C@]3(C)[C@H]1[C@@H]2C (stereo partly drawn) [DIGITONIN] | – | 0.94 | 0.65 | – | 0.68 | 0.72 | 0.94 | – | – | 0.67 | 0.93 | 0.73 | 0.88 | 0.85 | 0.68 | 0.85 | 1 | -0.37 | – | – | Growth Rate (Fibroblast; 0 h, replicate number 1): 0.3; Growth Rate (Fibroblast; 6 h, replicate number 2): 0.68; Growth Rate (U2OS; 0 h, replicate number 1): 0.49; Growth Rate (U2OS; 0 h, replicate number 2): 0.74; Growth Rate (U2OS; 12 h, replicate number 2): 0.67; Growth Rate (U2OS; 18 h, replicate number 1): 0.96; Growth Rate (U2OS; 18 h, replicate number 2): 0.6; Growth Rate (U2OS; 24 h, replicate number 2): 0.6
5 | CO[C@@H](C)CN1CC[C@]2(C)c3cc(O)ccc3C[C@H]1C2(C)C.Cl | – | – | – | – | – | – | -0.8 | 0.93 | – | 0.89 | 1 | – | – | – | 0.47 | 0.82 | – | – | 0.15 | 0.69 | Growth Rate (Fibroblast; 0 h, replicate number 1): -1; Growth Rate (U2OS; 0 h, replicate number 1): 0.91
6 | Oc1c(-c2cccnc2)cnn1-c1ccccn1 | 0.91 | – | – | – | – | – | 0.86 | – | – | – | – | 0.44 | 0.87 | 0.59 | – | – | 0.84 | 0.54 | -0.2 | 0.87 | –
7 | COc1ccc(-n2nc3c4ccccc4[nH]cc-3c2=O)cc1 | – | 0.53 | 1 | – | – | – | 0.74 | -0.1 | – | 0.81 | – | 0.91 | – | – | – | 0.89 | – | 0.6 | – | 0.7 | Growth Rate (U2OS; 0 h, replicate number 1): -0.37; Growth Rate (U2OS; 0 h, replicate number 2): -0.98
8 | COc1cc(CN(CCN)C(=O)N[C@@H](C)c2ccccc2)ccc1OCc1ccccc1.Cl | – | – | 0.77 | – | 0.81 | 0.74 | – | 0.29 | 0.94 | 0.41 | 0.87 | 0.71 | 0.72 | 0.83 | 0.82 | 0.69 | 0.79 | – | – | 0.64 | Growth Rate (Fibroblast; 0 h, replicate number 1): -1; Growth Rate (U2OS; 0 h, replicate number 1): -0.64; Growth Rate (U2OS; 0 h, replicate number 2): -0.26; Growth Rate (U2OS; 18 h, replicate number 1): 0.98; Growth Rate (U2OS; 18 h, replicate number 2): 0.92; Growth Rate (U2OS; 24 h, replicate number 2): 1
9 | C[C@@H]1C[C@H](N)C[C@H](c2ccncc2NC(=O)c2ccc(F)c(-c3c(F)cccc3F)n2)C1 [LGH-447] | -0.02 | 0.11 | 0.54 | 0.27 | 0.54 | 0.57 | 0.09 | – | 0.96 | 0.9 | 0.87 | 0.58 | 0.67 | 0.44 | – | 0.59 | 0.98 | – | – | -0.22 | Growth Rate (HEK-293T; 12 h, replicate number 1): 0.2; Growth Rate (HEK-293T; 24 h, replicate number 1): 0.36; Growth Rate (Fibroblast; 6 h, replicate number 2): 0.93; Growth Rate (U2OS; 18 h, replicate number 1): 0.82; Growth Rate (U2OS; 24 h, replicate number 2): 0.96
10 | CC(=O)c1c(C)c2cnc(Nc3ccc(N4CCNCC4)cn3)nc2n(C2CCCC2)c1=O [PALBOCICLIB] | 0.61 | 0.69 | 0.81 | 0.78 | 0.8 | 0.75 | – | 0.91 | 0.92 | – | 0.87 | 0.98 | 0.79 | – | 0.97 | 0.87 and 0.84 | 0.76 and 0.92 | 0.2 | 0.78 | 0.72 and 0.58 | Growth Rate (HEK-293T; 12 h, replicate number 1): 0.77; Growth Rate (HEK-293T; 24 h, replicate number 1): 0.83 and 0.98; Growth Rate (Fibroblast; 0 h, replicate number 1): -0.2; Growth Rate (U2OS; 18 h, replicate number 1): 0.59 and 0.72
11 | O=C(O)/C=C/c1ccc(Cn2ccnc2)cc1 [OZAGREL] | – | – | 0.92 | 0.96 | – | – | -0.85 | – | – | – | 0.97 | – | 0.78 | – | – | – | 0.94 | 0.5 | 0.4 | 0.91 | Growth Rate (Fibroblast; 0 h, replicate number 1): -1; Growth Rate (U2OS; 0 h, replicate number 2): 0.65; Growth Rate (U2OS; 12 h, replicate number 2): 0.94
